Laboratory results as given in patent US11839609B1, “Substituted tetrahydroisoquinolines as anti-mitotic drug in triple negative breast cancer” (Florida A&M University, priority 2021, dated 2023).
pIC50: −log10 of the molar value.

Experiments:
MDA-MB-231 cells [1] = test: Cell proliferation (cell count), 6-day endpoint, Alamar blue; assay type: cell-based, human; conditions: for concentration showing a complete blockage of cell proliferation with lack of cell toxicity: MDA-MB-231, chosen for microarray
Protocol: MDA-MB-231 cells (ATCC® HTB-26™) were used. These cells are human triple negative breast cancer cells, which we obtained from American Type Culture Collection (ATCC) (Manassas, VA, USA). MDA-MB-231 cells were initially brought up in ATCC-formulated Leibowitz's L-15 medium, supplemented with 10% fetal bovine serum (FBS) and penicillin/streptomycin (100 U/0.1 mg/ml). After confluence, the cells were sub-cultured and grown in Dulbecco's modified Eagle's medium (DMEM) containing phenol red, 7.5% FBS, 4 mM L-glutamine, 20 μM sodium pyruvate, and penicillin/streptomycin (100 U/0.1 mg/ml). Cells were maintained at 37° C. in 5% C02/atmosphere, and every 2-5 days, the medium was replaced and cells sub-cultured. The growth medium was used for all experiments conducted herein.
For MDA-MB-231 cells, both paclitaxel and GM-4-53 were dissolved in DMSO and […]. A stock solution for both compounds was prepped in HBSS. In brief, 96-well plates were seeded with cells (0.04×10^5/well) to a volume of 200 μL, to which drugs were added, and cell proliferation (as cell count) was evaluated at a 6-day endpoint, using Alamar blue. […] Samples were returned to the incubator for 4-6 h, and the reduction in the dye (to resorufin, a fluorescent compound) caused by viable cells was quantitatively analyzed using a Synergy HTX multi-mode reader (Bio-Tek, Winooski, VT, USA), with excitation/emission wavelength settings at 550 nm/580 nm. Cell count was evaluated as % control, and the inhibitory growth (IG50) value was calculated by regression analysis. […] The cytostatic effects of MCF-7 and Ishikawa cell lines were determined using the CellTiter-Glo (CTG) luminescent cell viability assay, which is based on the direct determination of intracellular ATP level (determining the number of viable cells in culture based on the quantification of ATP present), which signals the presence of metabolically active cells. Luminescence results were read on TriLux Luminometer. […]

MDA-MB-231 cells [2] = test: Cytotoxicity assay at high plating density, 24-36 h; assay type: cell-based, human; conditions: 36-hour toxicity assay, equal drug concentrations, 0.5×10^5 cells/well
Protocol: For MDA-MB-231 cells, both paclitaxel and GM-4-53 were dissolved in DMSO and […]. A stock solution for both compounds was prepped in HBSS. In brief, 96-well plates were seeded with cells (0.04×10^5/well) to a volume of 200 μL, to which drugs were added, and cell proliferation (as cell count) was evaluated at a 6-day endpoint, using Alamar blue. For Alamar blue testing, a working solution of resazurin prepared in sterile phosphate-buffered saline (PBS)-phenol red (0.5 mg/mL) was added (15% v/v) to each sample in a 96-well plate. Samples were returned to the incubator for 4-6 h, and the reduction in the dye (to resorufin, a fluorescent compound) caused by viable cells was quantitatively analyzed using a Synergy HTX multi-mode reader (Bio-Tek, Winooski, VT, USA), with excitation/emission wavelength settings at 550 nm/580 nm. Cell count was evaluated as % control, and the inhibitory growth (IG50) value was calculated by regression analysis. […] The cytostatic effects of MCF-7 and Ishikawa cell lines were determined using the CellTiter-Glo (CTG) luminescent cell viability assay, which is based on the direct determination of intracellular ATP level (determining the number of viable cells in culture based on the quantification of ATP present), which signals the presence of metabolically active cells. Luminescence results were read on TriLux Luminometer. […]

[3] = test system: Ishikawa endometrial cancer cell line; test: Cytostatic effect, CellTiter-Glo luminescent cell viability assay; assay type: cell-based, human; conditions: Southern Research Institute, FIG. 4
Protocol: (§1) The anti-proliferative activity of GM-4-53 on two additional cell lines was evaluated at the Southern Research Institute (SRI, Birmingham, Alabama, USA). There, the human MCF-7 breast cancer cell line was purchased from the NCI. The human Ishikawa endometrial cancer cell line was purchased from Sigma Aldrich. Both cell lines were cultured in phenol red-free RPMI-1640 (Hyclone) (500 mL), supplemented with L-glutamine-dipeptide (Hyclone) (5 mL), and 10% fetal bovine serum (Atlanta Biologicals) (50 mL).
(§2) For MDA-MB-231 cells, both paclitaxel and GM-4-53 were dissolved in DMSO and […]. A stock solution for both compounds was prepped in HBSS. In brief, 96-well plates were seeded with cells (0.04×10^5/well) to a volume of 200 μL, to which drugs were added, and cell proliferation (as cell count) was evaluated at a 6-day endpoint, using Alamar blue. […] Samples were returned to the incubator for 4-6 h, and the reduction in the dye (to resorufin, a fluorescent compound) caused by viable cells was quantitatively analyzed using a Synergy HTX multi-mode reader (Bio-Tek, Winooski, VT, USA), with excitation/emission wavelength settings at 550 nm/580 nm. Cell count was evaluated as % control, and the inhibitory growth (IG50) value was calculated by regression analysis. […] Luminescence results were read on TriLux Luminometer. […]

[4] = test system: MCF-7 breast cancer cell line; test: as above; assay type: cell-based, human; conditions: MCF-7, Southern Research Institute, FIG. 4
Protocol: as §1, §2

MDA-MB-231 cells [5] = test: Whole-transcriptome microarray (WT 2.1 Human), differentially expressed genes; assay type: cell-based; conditions: 36 h; for ID1, ID3 and ID4 transcripts: GM-4-53 more significant effects than paclitaxel; for DEGs shared by both drugs (overlap) / down-regulated DEGs vs. controls / upregulated DEGs vs. controls / differentially expressed genes (DEGs) of 48,226 genes analyzed: paclitaxel 1 μg/mL, GM-4-53 5 μg/mL; for differentially expressed genes (DEGs) of 48,226 genes analyzed: FC >2 or <−2, p and FDR p <0.05
Protocol: For MDA-MB-231 cells, both paclitaxel and GM-4-53 were dissolved in DMSO and […]. A stock solution for both compounds was prepped in HBSS. In brief, 96-well plates were seeded with cells (0.04×10^5/well) to a volume of 200 μL, to which drugs were added, and cell proliferation (as cell count) was evaluated at a 6-day endpoint, using Alamar blue. For Alamar blue testing, a working solution of resazurin prepared in sterile phosphate-buffered saline (PBS)-phenol red (0.5 mg/mL) was added (15% v/v) to each sample in a 96-well plate. Samples were returned to the incubator for 4-6 h, and the reduction in the dye (to resorufin, a fluorescent compound) caused by viable cells was quantitatively analyzed using a Synergy HTX multi-mode reader (Bio-Tek, Winooski, VT, USA), with excitation/emission wavelength settings at 550 nm/580 nm. Cell count was evaluated as % control, and the inhibitory growth (IG50) value was calculated by regression analysis. Cytotoxicity studies were carried out at equal dose concentrations as proliferation studies at a higher plating density (0.5×10^5/well), over 24-36 h. The cytostatic effects of MCF-7 and Ishikawa cell lines were determined using the CellTiter-Glo (CTG) luminescent cell viability assay, which is based on the direct determination of intracellular ATP level (determining the number of viable cells in culture based on the quantification of ATP present), which signals the presence of metabolically active cells. Luminescence results were read on TriLux Luminometer. Optimal concentrations for microarray were established by a lack of cell toxicity, at a concentration showing a complete blockage of cell proliferation; paclitaxel (1 μg/mL) and GM-4-53 (5 μg/mL). For microarray studies, cells were plated and treated in […] flasks for 36 h.
After the experimental 36-hour time point, the cells were scraped, washed three times in ice-cold HBSS, spun down, the supernatant removed, and the remaining pellet was rapidly frozen and stored at −80° C. Total RNA was isolated and purified using the Trizol/chloroform method. The RNA quality was assessed, and concentrations were equalized to 82 ng/μI in nuclease-free water. According to the GeneChip™ WT PLUS Reagent Manual for Whole Transcript (WT) expression arrays, whole transcriptome analysis was conducted. Briefly, RNA was reverse transcribed to first strand/second strand […]. The cRNA was purified and assessed for yield before the second cycle single-stranded cDNA synthesis, hydrolysis of RNA, and purification of the second cycle single-stranded cDNA. Subsequently, cDNA was assessed for yield, fragmented, labeled, and hybridized onto the arrays before being subjected to fluidics and imaging using the Gene Atlas (Affymetrix, ThermoFisher Scientific). The array data, quality control, and initial processing from CEL to CHP files were conducted using an expression console before data evaluation using the Affymetrix transcriptome analysis console (Wiki/Kegg pathways) and protein-protein interaction (PPI) String Database (String Consortium 2020)^1. The dataset has been deposited to NIH Gene Expression OmniBus.

MDA-MB-231 cells [6] = test: 3D tumor spheroid study; assay type: cell-based, human; conditions: GM-4-53 5 μg/mL, paclitaxel 1 μg/mL; drugs added day 14, images day 24
Protocol: MDA-MB-231 cells were plated in low-adhesion, round-bottom, sterile, 96-well plates at a cell density of (0.2×10^5/well), in 200 uL of cell culture media centrifuged at 1800×g for 3 min prior to incubation at 37° C. in 5% C02/atmosphere. For the first 3 days, cells were taken out and re-centrifuged at 1800×g×3 min. 3D spheroids were left to grow for 10 days. On day 14, experimental drugs were added, and images were captured on day 24.
(§3) 2D cell cultures were imaged to ascertain changes in morphological structure at the 6-day endpoint in MDA-MB-231 cells in the presence or absence of treatments. In brief, cells were fixed in 4% paraformaldehyde and incubated at 37° C. in 5% CO2/atmosphere for 15 min. After delicate removal of paraformaldehyde, sterile ultra-pure biological grade water containing 0.2% Triton X-100 was gently added to each well (100 uL) and returned to the incubator for 45 min. After gentle removal, a PBS solution containing propidium iodide (1 μg/mL) and Phalloidin-iFluor 488 Reagent (ab176753) was added to each well, according to the manufacturer's instructions Abcam (Cambridge, MA, USA), and images were captured on an inverted fluorescent microscope using the 10× and 25× fluo-objectives. 3D tumors were stained with fluorescein diacetate (live-cell dye) and countered imaged for morphology.

tubulin = test: Tubulin polymerization/depolymerization; assay type: biochemical
Solubility = assay type: physicochemical
MDA-MB-231 cells [7] = test: 2D imaging of cytoskeletal morphology (phalloidin/propidium iodide); assay type: cell-based, human; conditions: day 6; GM-4-53 5 μg/mL, paclitaxel 1 μg/mL
Protocol: as §3

[8] = test system: triple negative breast cancer (TNBC); test: Treatment of a TNBC patient (Example 1); assay type: in vivo, human; conditions: therapeutically effective amount
Protocol: A patient presents with a lump in their left breast. A biopsy of the mass is performed and the cells are found to lack estrogen or progesterone receptors and HER2 protein thus confirming a diagnosis of triple negative breast cancer (TNBC). The patient is administered a therapeutically effective amount of 4-Ethyl-N-(7-hydroxy-3,4-dihydroisoquinolin-2(1H)-yl) benzamide (GM-4-53) for a time period sufficient to inhibit cell proliferation. The patient is tested at regular intervals while the drug is being administered as well as after administration has stopped.

Row | Structure (SMILES) | concentration showing a complete blockage of cell proliferation with lack of cell toxicity (MDA-MB-231 cells [1]) [µg/mL] | cytotoxic effects (MDA-MB-231 cells [2]) | amphiregulin (AREG) and epiregulin (EREG) mRNA (MDA-MB-231 cells [5]) | expression of COX2 (MDA-MB-231 cells [5]) | expression of ICAM-1 (MDA-MB-231 cells [5]) | ID1, ID3 and ID4 transcripts (MDA-MB-231 cells [5]) | DEGs shared by both drugs (overlap) (MDA-MB-231 cells [5]) | down-regulated DEGs vs. controls (MDA-MB-231 cells [5]) | upregulated DEGs vs. controls (MDA-MB-231 cells [5]) | differentially expressed genes (DEGs) of 48,226 genes analyzed (MDA-MB-231 cells [5]) | effect on 3D tumor spheroid (MDA-MB-231 cells [6]) | morphological changes of actin cytoskeleton (MDA-MB-231 cells [7]) | other results
1 | CCc1ccc(C(=O)NN2CCc3ccc(O)cc3C2)cc1 [GM-4-53, 4-Ethyl-N-(7-hydroxy-3,4-dihydroisoquinolin-2(1H)-yl)benzamide] | 5 | no cytotoxic effects | significantly downregulated | downregulated the expression | reduced the expression | pronounced downregulation | 52 | 168 | 75 | 243 | halts the growth and appears to penetrate the tumor core | abnormally large-shaped extended actin networks | pIC50 (MDA-MB-231 cells [1]; Homo sapiens, 144 h, MDA-MB-231, 6-day growth study, regression analysis, read-out: anti-proliferative IG50 growth inhibitory concentration): 6.58; IG50 (cytostatic growth-inhibitory effect) [3]: mid-to-high; IG50 (cytostatic growth-inhibitory effect) [4]: mid-to-high; oncogenic transcription factors (FOS, JUN-b, NFKB1a) driving oncostatin M (OSM) signaling (MDA-MB-231 cells [5]; vs untreated controls): general loss; KLRC3 transcript (MDA-MB-231 cells [5]; greater extent in GM-4-53): loss of the KLRC3 transcript; effect on tubulin nucleation (tubulin): only mild effects; effect on tubulin polymerization/depolymerization processes (tubulin): failed to show any effect; solubility (Solubility): excellent solubility; patient outcome [8]: deemed in remission
2 | CC(=O)O[C@H]1C(=O)[C@@]2(C)[C@H]([C@H](OC(=O)c3ccccc3)[C@]3(O)C[C@H](OC(=O)[C@H](O)[C@@H](NC(=O)c4ccccc4)c4ccccc4)C(C)=C1C3(C)C)[C@]1(OC(C)=O)CO[C@@H]1C[C@@H]2O [paclitaxel, reference compound] | 1 | no cytotoxic effects | significantly downregulated | downregulated the expression | reduced the expression | pronounced downregulation | 52 | 45 | 108 | 153 | halt the growth of the spheroid and central core | abnormally large-shaped extended actin networks | 
